Counter-ions that a name gives are not always drawn. Like-named read-outs stand apart in the source and are kept apart here.
Columns and labels:
[1] = test system: purified oligodendroglia cocultured with purified neurons
From the text: In the cocultures, myelin internodes can be routinely identified by the “tube-like” structures (immunostained for myelin-specific proteins) formed by the oligodendrocytes. […] Overall, the coculture system recapitulates the timing of oligodendrocyte development and myelination in vivo and represents a powerful tool to validate compounds and factors that may both promote and inhibit oligodendroglial development. […] Additionally, the ability to quantify a functional readout for differentiation and myelination by oligodendrocytes, provides the unique opportunity to uncouple the axonal contribution on myelination.
Cultures were immunostained after 7 days in vitro and analyzed for myelin basic protein (red).

oligodendroglia = conditions: polystyrene nanofibers, no axons
Method: The exquisite flexibility in the design of our nanofibers guarantees constant uniformity and density of fibers in the experimental design and any effects from compounds tested could be attributed solely to direct influences on oligodendroglia (FIG. 2), without confounding effects from neurons.
Nanofibers are patterned and deposited into a 24-well format and placed under an automated fluorescence microscope with incubation chamber. Upon addition of oligodendroglia and small molecules, cells cultured with the nanofibers can be analyzed for effects on proliferation, survival, differentiation, and myelination in real time. […]
To initiate a screen, a candidate list of known molecules and chemical inhibitors thought to play a role in promoting oligodendrocyte differentiation and myelination was compiled, and applied various FDA approved compounds in the treatment of psychiatric disorders. […] Additionally, the ability to quantify a functional readout for differentiation and myelination by oligodendrocytes, provides the unique opportunity to uncouple the axonal contribution on myelination.
Oligodendrocyte differentiation and myelination were examined on our nanofiber platform (a). […] Cultures were immunostained after 7 days in vitro and analyzed for myelin basic protein (red).

[2] = test system: oligodendrocyte precursor cells (OPCs); conditions: for number of red "myelin rings" generated by oligodendrocytes (MBP positive staining) compared to control: compound added at 4 div for two days, images at 6 div; for generation of "myelin rings" on the micropillar platform: OPCs plated on micropillar arrays
From the text: Using Axiovision software by Zeiss, we can automate the detection and quantification of the number of myelin rings without any of the confounding issues associated with the nanofibers (i.e. length of internodes, interfering cell processes, cell bodies, etc.). Essentially, oligodendrocyte precursor cells (OPCs) will be visualized as green rings whereas oligodendrocytes are indicated as red rings (FIG. 4C).
(A-C) Immunostaining for myelination by oligodendrocytes (red, MBP positive staining) surrounding micropillars. Oligodendrocytes were cultured on micropillars for total of 6 days in vitro (div) and received compounds known to enhance differentiation at 4 div for two days. […] Images were acquired at 6 div. Scale bar, 50 μm.

Row | Compound | differentiation and myelination of neuronal axons ([1]; purified oligodendroglia with purified neurons) | oligodendrocyte differentiation and myelination (myelin basic protein immunostaining) ([1]; quetiapine fumarate 100 nM, 7 days in vitro, Oligodendrocyte-DRG cocultures) | differentiation of oligodendrocytes and myelination of the nanofibers (oligodendroglia) | number of red "myelin rings" generated by oligodendrocytes (MBP positive staining) compared to control ([2]; 1 μM) | generation of "myelin rings" on the micropillar platform [2] | number of red "myelin rings" generated by oligodendrocytes (MBP positive staining) compared to control ([2]; 30 ng/mL)
1 | OCCOCCN1CCN(C2=Nc3ccccc3Sc3ccccc32)CC1 [quetiapine fumarate] | significantly enhances | significantly accelerated | greatly enhanced | increases | significantly enhanced | –
2 | N[C@@H](Cc1cc(I)c(Oc2ccc(O)c(I)c2)c(I)c1)C(=O)O [thyroid hormone] | – | – | – | – | significantly enhanced | increases
